Molecular target: T1, R7V (Homo sapiens, UniProt P61769)
T1 construct: The peptide R7V (RTPKIQV) was extended by 2 amino acids in order to allow the coupling
Assay: Immune response of rabbits immunized with peptide-KLH, serum ELISA on peptide
Assay type: in vivo, rabbit
Conditions: not given
Experimental: The peptide antigen 7AA is coupled to KLH (Keyhole Limpet Hemocyanin) and injected into rabbits in the presence of complete Freund's adjuvant.
The animals are immunized in the presence of complete Freund's adjuvant at D0, D14, D28, D42 and trial bleedings are carried out before immunization on days 35, 49, 56 and 70.
The peptides used are: RV7-KLH, S7K-KLH and F7E-KLH
The peptide R7V (RTPKIQV) was extended by 2 amino acids in order to allow the coupling. The structure used as immunogen is […].
The antibodies of the rabbits immunized 618 were measured by ELISA, where the peptide coupled to various carrier proteins was used at the bottom of the well (either coupled to KLH, to BSA (Bovine Serum Albumin) or MAP (Multiple Antigenic Peptide)).
The diagrams represent the results obtained at 2 dilutions d100 and d1000, that is to say a 1/100 and 1/1000 dilution of the sera, or at different times. […]
→(Ag)final=1 μg/ml • distribute 100 μl/well, that is to 100 ng/well • incubate 2 h at 37° C. or overnight at 4° C. […] (in a humid atmosphere). • 8) Washes (identical to point 2) • 9) Visualization with OPD • dissolve 10 mg OPD in 25 ml of phosphocitrate buffer (0.1 M, pH 5.5) • add at the last moment 10 μl H2O2 • distribute 100 μl/well and incubate 30 min in the dark at room temperature (may be read at 405 nm) • stop the reaction with 50 μl H2SO4 12.5 k. • 10) Reading at 492 nm.

Substance | immune response generated
RTPKIQV [R7V] | good immune response

Tested on: B1G6 monoclonal antibody
Assay: Effect of selected peptides on the neutralization of HIV-1 NDK by B1G6 monoclonal antibody on PBLs
Assay type: cell-based
Conditions: peptide 100 or 50 μg/ml; B1G6 5 μg/ml
Experimental: The peptides at a concentration of 100 μg/ml or 50 μg/ml (40 μl or 20 μl of the stock solution and 5 mg/ml) are preincubated with 5 μg/ml of B1G6 (10 μl of a stock solution at 1 mg/ml) in a total volume of 110 μl for 2 hours, in tubes on a water bath at 37° C., with gentle stirring. Next, HIV-1 NDK is added (100 μl of a 2×10^−4 dilution of a stock solution and the tubes are incubated for 1 hour at 37° C. on a water bath. The tubes are then separated into two and each 100 μl is added to 10^6 PBLs on a 24-well plate. The cells are cultured for 3 days at 37° C. under an atmosphere with 5% CO2. On day 3, the cells are washed, placed in culture and propagated for at least 20-25 days in a 25 cm^3 round-bottomed flask. The production of virus is monitored every 3 or 4 days by the assay of reverse transcriptase (RT).

Substance | canceling of the neutralizing effect of B1G6 on the production of HIV-1 NDK by the PBLs
TLSRTPKIQV [compound 185] | lost the canceling effect
IQRTPNIVKW [compound 190] | lost the canceling effect
RTPKIQV [R7V] | can cancel the neutralizing effect
IQRTPQIVKW [compound 189] | lost the canceling effect
FHPSDIE [F7E] | can cancel the neutralizing effect

— patent US20100167265A1, “VACCINE AGAINST INFECTIOUS AGENTS HAVING AN INT[…], COMPOSITION FOR THE TREATMENT AND PREVENTION OF HIV INFECTIONS, ANTIBODIES AND METHOD OF DIAGNOSIS” (INSTITUT NATIONAL de la SANTE ET DE LA RECHERCHE MEDICALE …, priority 1995, published 2010)
